Experimental data as given in article PMC10700596 (Nature Communications, 2023).
Read-outs that look alike come from different tables or passages of the source.

What was measured:
EP4R = biological target: T1, EP4R (Homo sapiens, UniProt P35408); experiment: PRESTO-Tango β-arrestin2 recruitment assay; type: cell-based
T1 construct: Tango fusion cassette (only 'tango' is printed); expressed in transfected cells; host or cells: HTLA cells (tTA-dependent luciferase reporter, β-arrestin2-TEV fusion)

in vivo = type: in vivo, mice
[1] = male, CD-1, mouse, plasma, ip, 10 mg/kg, mice, IP 10 mg/kg, plasma, mean of 3 animals, read-out: Plasma concentration C (mean)
[2] = male, CD-1, mouse, plasma, ip, 10 mg/kg, mice, IP 10 mg/kg, plasma, single animal, D=1, read-out: Final plasma concentration, individual sample
[3] = male, CD-1, mouse, plasma, iv, 10 mg/kg, mice, IV 10 mg/kg, plasma, single animals, read-out: Plasma concentration, Final (individual mouse)
[4] = male, CD-1, mouse, plasma, iv, 10 mg/kg, mice, IV 10 mg/kg, plasma, read-out: Plasma concentration C (mean)

T1 sequence (P35408 whole entry, the tested form may be a part): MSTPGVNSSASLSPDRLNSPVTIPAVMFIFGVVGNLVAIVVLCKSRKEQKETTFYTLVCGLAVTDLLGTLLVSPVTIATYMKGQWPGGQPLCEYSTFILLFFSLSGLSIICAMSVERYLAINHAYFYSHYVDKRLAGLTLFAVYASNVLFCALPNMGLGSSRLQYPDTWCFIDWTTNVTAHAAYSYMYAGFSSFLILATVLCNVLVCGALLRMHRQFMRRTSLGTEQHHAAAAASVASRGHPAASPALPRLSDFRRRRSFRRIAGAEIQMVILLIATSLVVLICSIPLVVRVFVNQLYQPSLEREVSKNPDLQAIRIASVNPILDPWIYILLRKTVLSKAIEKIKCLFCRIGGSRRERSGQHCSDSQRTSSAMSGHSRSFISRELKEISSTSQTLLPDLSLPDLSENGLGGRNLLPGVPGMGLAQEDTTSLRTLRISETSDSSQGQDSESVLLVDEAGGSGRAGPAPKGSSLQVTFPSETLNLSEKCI

For O=C([O-])C1CCC2(CC1)CC(Nc1ncnc3[nH]c4c(F)cccc4c13)C2.[Na+] (centres unmarked) [Compound 77, [Na+].[O-]C(=O)C1CCC2(CC(C2)NC=3N=CN=C4NC=5C(F)=CC=CC5C34)CC1], the IC50 (EP4R; PRESTO-Tango IC50 (nM)) was 232 nM, the Ki (EP4R; calculated using the Cheng Prusoff equation, read-out: PRESTO-Tango Ki*) was 46 nM and the “concentrations in blood compared to CJ-42794” value (in vivo; 10 mg/kg i.p., two to four hours after injection) was “higher concentrations in blood two to four hours after injection”. For the same compound, the concentration at 5 min (in vivo; [1]) was 2420 ng/mL, the concentration at 5 min (in vivo; [2]) was 2380 ng/mL and the concentration at 15 min (in vivo; [1]) was 7250 ng/mL. For the same compound, the concentration at 15 min (in vivo; [2]) was 6880 ng/mL, the concentration at 30 min (in vivo; [1]) was 6710 ng/mL and the concentration at 30 min (in vivo; [2]) was 8130 ng/mL. It also gave a concentration at 60 min (in vivo; [1]) of 9910 ng/mL, a concentration at 60 min (in vivo; [2]) of 10900 ng/mL and a concentration at 120 min (in vivo; [1]) of 6380 ng/mL. For the same compound, the concentration at 240 min (in vivo; [1]) was 3590 ng/mL, the concentration at 360 min (in vivo; [1]) was 1980 ng/mL and the concentration at 360 min (in vivo; [2]) was 1660 ng/mL. The concentration at 480 min (in vivo; [1]) was 753 ng/mL, the concentration at 480 min (in vivo; [2]) was 889 ng/mL and the concentration at 1440 min (in vivo; [1]) was 17 ng/mL. The concentration at 1440 min (in vivo; [2]) was 18.9 ng/mL, the Cmax (in vivo; male, CD-1, mouse, plasma, ip, 10 mg/kg i.p., mice) was 9910 ng/mL and the AUC (in vivo; male, CD-1, mouse, plasma, ip, 10 mg/kg i.p., mice, read-out: plasma AUC (converted)) was 39500 ng·h/mL. For the same compound, the concentration at 5 min (in vivo; [3]) was 24100 ng/mL, the concentration at 5 min (in vivo; [4]) was 26200 ng/mL and the concentration at 15 min (in vivo; [3]) was 14400 ng/mL. The concentration at 15 min (in vivo; [4]) was 17000 ng/mL, the concentration at 30 min (in vivo; [3]) was 10900 ng/mL and the concentration at 30 min (in vivo; [4]) was 12700 ng/mL. The concentration at 60 min (in vivo; [3]) was 11000 ng/mL, the concentration at 60 min (in vivo; [4]) was 10500 ng/mL and the concentration at 120 min (in vivo; [3]) was 4760 ng/mL. The concentration at 120 min (in vivo; [4]) was 4090 ng/mL, the concentration at 240 min (in vivo; [3]) was 2370 ng/mL and the concentration at 240 min (in vivo; [4]) was 2080 ng/mL. The concentration at 360 min (in vivo; [3]) was 1260 ng/mL, the concentration at 360 min (in vivo; [4]) was 1730 ng/mL and the concentration at 480 min (in vivo; [4]) was 1240 ng/mL. It also gave a concentration at 1440 min (in vivo; [4]) of 43.2 ng/mL, an AUC (in vivo; male, CD-1, mouse, plasma, iv, 10 mg/kg i.v., mice, read-out: AUC (converted)) of 46200 ng·h/mL and a bioavailability (in vivo; male, CD-1, mouse, plasma, oral, 30 mg/kg p.o. vs 10 mg/kg i.v., mice) of 78%. The concentration at 5 min (in vivo; male, CD-1, mouse, plasma, po, 30 mg/kg, mice, PO 30 mg/kg, plasma, read-out: Plasma concentration C (mean)) was 4340 ng/mL and the concentration at 15 min (in vivo; male, CD-1, mouse, plasma, po, 30 mg/kg, mice, PO 30 mg/kg, plasma, single animals, read-out: Plasma concentration, Final (individual mouse)) was 17600 ng/mL.
